Data as given in EPA's ToxValDB 9.5 (doi:10.2903/j.efsa.2014.3801).
“And” between values parts separate entries of the source, which are not always exact repeats. Equal values may be shown once.

How the values were obtained:
Daphnia magna = conditions: chronic/long-term; duration: 21 days
Oncorhynchus mykiss = conditions: for LC50: acute, duration: 96 hours, mortality; for NOEC: chronic/long-term
Rattus norvegicus = conditions: for LD50: acute; for NOAEL: reproduction developmental
Tagia sp. = conditions: for LC50: acute, mortality
Anas platyrhynchos = conditions: reproductive
Apis mellifera = conditions: acute, mortality
Colinus virginianus = conditions: acute, oral
Folsomia candida = conditions: chronic/long-term
Typhlodromus pyri = experiment: LR50; higher = less toxic; conditions: acute; duration: 14 days; mortality

Structure (SMILES)	NOEC (Daphnia magna)	LC50 (Oncorhynchus mykiss)	NOEC (Oncorhynchus mykiss; duration: 21 days)	NOEC (Oncorhynchus mykiss; duration: 69 days, other)	LD50 (Rattus norvegicus; F)	LC50 (Tagia sp.)	NOEC (Tagia sp.; chronic/long-term)	NOAEL (Anas platyrhynchos)	LD50 (Apis mellifera; dermal)	LD50 (Apis mellifera; oral, unspecified)	LD50 (Colinus virginianus)	LC50 (Colinus virginianus; diet)	NOEC (Folsomia candida)	LD50 (Rattus norvegicus; oral, mortality)	NOAEL (Rattus norvegicus)	NOAEL (Rattus norvegicus; body weight)	NOAEL (Rattus norvegicus; organ weight)	LR50 (Typhlodromus pyri)
O=c1cc(Cl)[nH]nc1-c1ccccc1 [Pyridafol]	5 mg/L	> 16.2 µg/mL	> 17 mg/L	0.1 mg/L	1420 mg/kg	348 mg/kg	3.25 mg/kg	–	–	–	–	–	–	–	–	–	–	–
CCCCCCCCSC(=O)Oc1cc(Cl)nnc1-c1ccccc1 [Pyridate]	–	> 1.01 µg/mL and 1.19 µg/mL	–	–	–	400 mg/kg	–	100 mg/kg	> 100 µg/piece	> 110 µg/piece	1270 mg/kg	> 1250 mg/kg	112 mg/kg	> 2000 mg/kg	18.8 mg/kg-day	165 mg/kg-day	3.6 mg/kg-day	> 1360 g/ha
